Results on 15 molecules are retold here after ChEMBL document CHEMBL1154025, “Design and synthesis of BACE-1 inhibitors utilizing a tertiary hydroxyl motif as the transition state mimic” (Bioorg Med Chem Lett, 2009).

In one data set the target is Beta-secretase 1 (Homo sapiens, UniProt P56817). In words: Inhibition of human BACE1 expressed in Escherichia coli BL21(DE3) using Swedish mutant sequence Eu-EVNLDAEFK-Quencher substrate by homogeneous time resolved fluorescence assay.
The target of a further data set is Cathepsin D (Homo sapiens, UniProt P07339). In words: Inhibition of human liver cathepsin D.
Data set [1] can be described thus: Permeability across human Caco-2 cell membrane. The format is ADME, cell-based. A general note: Caco-2 monolayers are a common model of the intestinal barrier.

A value given as a limit tells only on which side of the number the result lay.

Sequence of Beta-secretase 1 (P56817 whole entry): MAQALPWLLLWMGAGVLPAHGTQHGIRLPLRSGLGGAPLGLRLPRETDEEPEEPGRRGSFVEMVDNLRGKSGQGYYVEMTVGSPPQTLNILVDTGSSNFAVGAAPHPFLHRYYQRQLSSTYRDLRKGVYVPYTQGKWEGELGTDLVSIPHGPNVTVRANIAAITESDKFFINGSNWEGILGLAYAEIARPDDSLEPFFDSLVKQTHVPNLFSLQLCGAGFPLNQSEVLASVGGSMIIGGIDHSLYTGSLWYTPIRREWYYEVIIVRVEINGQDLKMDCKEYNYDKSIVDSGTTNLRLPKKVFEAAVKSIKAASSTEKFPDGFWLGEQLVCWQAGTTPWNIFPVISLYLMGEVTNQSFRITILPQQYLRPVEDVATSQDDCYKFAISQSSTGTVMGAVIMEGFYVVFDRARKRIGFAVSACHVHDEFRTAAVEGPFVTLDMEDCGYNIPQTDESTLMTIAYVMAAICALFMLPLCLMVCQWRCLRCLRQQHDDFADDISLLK
Sequence of Cathepsin D (P07339 65-162 limits assumed): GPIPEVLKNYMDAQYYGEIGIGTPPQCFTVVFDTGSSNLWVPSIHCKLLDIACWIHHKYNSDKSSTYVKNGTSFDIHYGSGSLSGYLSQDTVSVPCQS
Sequence of Cathepsin D (P07339 169-412 limits assumed): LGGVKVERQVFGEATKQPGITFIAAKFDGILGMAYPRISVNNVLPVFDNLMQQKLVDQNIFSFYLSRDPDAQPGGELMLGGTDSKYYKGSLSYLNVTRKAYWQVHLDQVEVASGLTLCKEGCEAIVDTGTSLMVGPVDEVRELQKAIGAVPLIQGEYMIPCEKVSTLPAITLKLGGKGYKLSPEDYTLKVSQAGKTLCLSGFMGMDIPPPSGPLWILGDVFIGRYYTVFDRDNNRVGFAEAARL

For `CC(C)[C@H](NC(=O)CCC(O)(CCc1ccccc1)C(=O)Nc1cc(C(=O)N[C@H](C)c2ccc(F)cc2)cc(N(C)S(C)(=O)=O)c1)C(=O)NCc1ccccc1` (some centres undefined), the half-maximal inhibitory concentration (IC50) (usually the concentration that gives 50% inhibition) on Beta-secretase 1 is more than 10 µM.
On to `C[C@@H](NC(=O)c1cc(NC(=O)CC[C@](O)(Cc2ccccc2)C(=O)N[C@H]2c3ccccc3C[C@H]2O)cc(N(C)S(C)(=O)=O)c1)c1ccccc1`, for which the half-inhibitory concentration (IC50) against Beta-secretase 1 amounted to 2.5 µM.
Molecule `CC(C)[C@H](NC(=O)CCC(O)(Cc1ccccc1)C(=O)Nc1cc(C(=O)N[C@H](C)c2ccc(F)cc2)cc(N(C)S(C)(=O)=O)c1)C(=O)NCc1ccc(C(=O)O)cc1` (some centres undefined) registered an IC50 against Beta-secretase 1 of more than 10 µM.
As to `C[C@@H](NC(=O)c1cc(NC(=O)CC[C@@](O)(Cc2ccccc2)C(=O)N[C@H]2c3ccccc3C[C@H]2O)cc(N(C)S(C)(=O)=O)c1)c1ccccc1`, at Beta-secretase 1, the 50% inhibitory concentration (IC50) is 4.6 µM.
On the same count and under the same terms, the value for `CC(C)[C@H](NC(=O)C(O)(CCC(=O)Nc1cc(C(=O)N[C@H](C)c2ccccc2)cc(N(C)S(C)(=O)=O)c1)CCc1ccccc1)C(=O)NCc1ccccc1` (some centres undefined) was 0.45 µM; that for `CC(C)[C@H](NC(=O)CCC(O)(Cc1ccccc1)C(=O)Nc1cc(C(=O)N[C@H](C)c2ccc(F)cc2)cc(N(C)S(C)(=O)=O)c1)C(=O)Nc1ccc(C(=O)O)cc1` (some centres undefined) was more than 10 µM.
`CC(C)[C@H](NC(=O)CCC(O)(Cc1ccccc1)C(=O)Nc1cc(C(=O)N[C@H](C)c2ccc(F)cc2)cc(N(C)S(C)(=O)=O)c1)C(=O)NCc1ccccc1` (some centres undefined) had a half-maximal inhibitory concentration (IC50) on Beta-secretase 1 of 5.9 µM.
As to `COC(=O)c1ccc(NC(=O)[C@@H](NC(=O)CCC(O)(Cc2ccccc2)C(=O)Nc2cc(C(=O)N[C@H](C)c3ccc(F)cc3)cc(N(C)S(C)(=O)=O)c2)C(C)C)cc1` (some centres undefined), 4 µM corresponded to half-maximal inhibition against Beta-secretase 1 (IC50).
For the molecule `COC(=O)c1ccc(CNC(=O)[C@@H](NC(=O)CCC(O)(Cc2ccccc2)C(=O)Nc2cc(C(=O)N[C@H](C)c3ccc(F)cc3)cc(N(C)S(C)(=O)=O)c2)C(C)C)cc1` (some centres undefined), at Beta-secretase 1, the half-maximal inhibitory concentration (IC50) was more than 10 µM.
The same measure, in the same setting: the figure for `CC(C)[C@H](NC(=O)CCC(O)(CCc1ccccc1)C(=O)Nc1cc(C(=O)N[C@H](C)c2ccccc2)cc(N(C)S(C)(=O)=O)c1)C(=O)NCc1ccccc1` (some centres undefined) is 5.6 µM; for `C[C@@H](NC(=O)c1cc(NC(=O)C(O)(CCC(=O)N[C@H]2c3ccccc3C[C@H]2O)Cc2ccccc2)cc(N(C)S(C)(=O)=O)c1)c1ccc(F)cc1` (some centres undefined) it is more than 10 µM; for `CC(C)[C@H](NC(=O)C(O)(CCC(=O)Nc1cc(C(=O)N[C@H](C)c2ccccc2)cc(N(C)S(C)(=O)=O)c1)CCc1ccccc1)C(=O)Nc1ccccc1` (single isomer, unassigned) it is 0.32 µM.
The molecule `C[C@@H](NC(=O)c1cc(NC(=O)CCC(O)(CCc2ccccc2)C(=O)N[C@H]2c3ccccc3C[C@H]2O)cc(N(C)S(C)(=O)=O)c1)c1ccccc1` (stereo in doubt; 36-(A)) returned an IC50 against Beta-secretase 1 of 0.57 µM.
On Beta-secretase 1, `C[C@@H](NC(=O)c1cc(NC(=O)CCC(O)(CCc2ccccc2)C(=O)N[C@H]2c3ccccc3C[C@H]2O)cc(N(C)S(C)(=O)=O)c1)c1ccccc1` (stereo in doubt; 37-(B)) showed a half-maximal inhibitory concentration (IC50) of 0.25 µM. In addition, the inhibition constant (Ki) (usually a dissociation constant, usually derived from enzyme kinetics or from competition with a known ligand) at Cathepsin D is more than 5 µM. Moreover, the Papp (usually a coefficient for how fast a substance crosses the barrier) in data set [1] was less than 1 ×10⁻⁶ cm/s.
The matching figures for `CC(C)[C@H](NC(=O)C(O)(CCC(=O)Nc1cc(C(=O)N[C@H](C)c2ccccc2)cc(N(C)S(C)(=O)=O)c1)CCc1ccccc1)C(=O)Nc1ccccc1` (stereo in doubt; 39-(A)): 0.23 µM, more than 5 µM and 1.2 ×10⁻⁶ cm/s.
